molecular target: T1, KRAS G12C 1-169, his-tagged protein, GDP-loaded (Homo sapiens, UniProt P01116, G12C); assay: Biochemical assay: covalent modification of KRAS G12C, analysed by mass spectrometry (RapidFire/TOF or Q-Exactive); type: binding; conditions: Modification activity, modification percentage from MS peak intensities
T1 construct: KRAS G12C 1-169, his-tagged protein, GDP-loaded; His tag
Protocol: Test compounds are prepared as 10 mM stock solutions in DMSO (Fisher cat. #BP-231-100). KRAS G12C 1-169, his-tagged protein, GDP-loaded is diluted to 2 μM or 0.5 μM in buffer (20 mM Hepes, 150 mM NaCl, 1 mM MgCl2). Compounds are tested for activity as follows:
Compounds are diluted to 50× final test concentration in DMSO in 96-well storage plates. Compound stock solutions are vortexed before use and observed carefully for any sign of precipitation. Dilutions are as follow: • For 32 μM final compound concentration, compounds are diluted to 1600 μM (3 μL 10 mM compound stock+15.75 μL DMSO and mixed well by pipetting. • For 8 μM final compound concentration, compounds are diluted to 400 μM (2 μL 10 mM compound stock+48 μL DMSO) and mixed well by pipetting. 49 μL of the stock protein solution is added to each well of a 96-well PCR plate (Fisher cat #1423027). 1 μl of the diluted 50× compounds are added to appropriate wells in the PCR plate using 12-channel pipettor. Reactions are mixed carefully and thoroughly by pipetting up/down with a 200 μL multi-channel pipettor. The plate is sealed well with aluminum plate seal, and protein and compound are allowed to react for a desired amount of time. 5 μL of 2% formic acid (Fisher cat #A117) in de-ionized H2O is then added to each well followed by mixing with a pipette to quench the reaction. The plate is then resealed with aluminum seal and stored frozen on dry ice until analyzed as described below.
The above described assays are analyzed by mass spectrometry according to one of the following two procedures:
The MS instrument is set to positive polarity, 2 GHz resolution, and low mass (1700) mode and allowed to equilibrate for 30 minutes. The instrument is then calibrated, switched to acquisition mode and the appropriate method loaded.
After another 30 minute equilibration time, a blank batch (i.e., buffer) is run to ensure equipment is operating properly. The samples are thawed at 37° C. for 10 minutes, briefly centrifuged, and transfer to the bench top. Wells A1 and H12 are spiked with 1 μL 500 μM internal standard peptide, and the plates centrifuged at 2000×g for 5 minutes. The method is then run and masses of each individual well recorded.
The masses (for which integration data is desired) for each well are pasted into the platemap and exported from the analysis. Masses for the internal standards are exported as well. The data at 50 ppm is extracted for the +19 charge state, and identity of well A1 is assigned using the internal standard spike and integrated. Peak data is exported as a TOF list and the above steps are repeated individually, for the +20, +21, +22, +23, +24, and +25 charge states.
The masses and peak intensities of KRAS G12C protein species are measured using a Dionex RSLCnano system (Thermo Scientific) connected to a Q Exactive Plus mass spectrometer (Thermo Scientific).
20 μL of sample is each loaded onto a Aeris™ 3.6 μm WIDEPORE C4 200 Å, LC Column 50×2.1 mm column maintained at 40° C. at a flow rate of 600 μL/min with 80% Solvent A (0.1% formic acid in H2O) and 20% Solvent B (0.1% formic acid in acetonitrile). The liquid chromatography conditions are 20% solvent B for 1 minute, 20% to 60% solvent B for 1.5 minutes, 60% to 90% solvent for 0.5 minute, 90% solvent B for 0.2 minute, 90% to 20% solvent B for 0.2 minute, and then equilibrated for 1.6 minute before the following sample injection. The flow rate is maintained at 600 μL/min throughout the sample analysis.
The mass spectrometer is operated in profile mode at a resolution of 17500, 5 microscans, using 50 msec max injection time and an AGC target of 1×10^6, and a full mass range from 800-1850 m/z is recorded. The intact protein mode is applied for optimal ion transfer and maximum sensitivity. The ionization method is electrospray ionization, which used a spray voltage of 4 kV, sheath gas flow set to 50 AU, auxiliary gas flow set to 10 AU and sweep gas flow set to 1 AU. […]

SMILES | Binding %
C=CC(=O)N1CC2(CCN(c3cc(-c4c(O)cccc4F)ncn3)C2)C1 [Compound I-230, 1-(6-(6-(2-fluoro-6-hydroxyphenyl)pyri-midin-4-yl)-2,6-diazaspiro[3.4]octan-2-yl)prop-2-en-1-one] | + (+ indicates binding activity greater than 0% and up to 50%)
C=CC(=O)N1CC2(CCN(c3ncnc(-c4cc5[nH]ncc5cc4C)c3C#N)C2)C1 [Compound I-235, 4-(2-acryloyl-2,6-diazaspiro[3.4]octan-6-yl)-6-(5-methyl-1H-indazol-6-yl)pyrimidine-5-carbonitrile] | + (+ indicates binding activity greater than 0% and up to 50%)
C=CC(=O)N1CC2(CCN(c3ncnc(C#Cc4c(C)ccc5[nH]ncc45)c3C#N)C2)C1 [Compound I-232, 4-(2-acryloyl-2,6-diazaspiro[3.4]octan-6-yl)-6-((5-methyl-1H-indazol-4-yl)ethynyl)pyrimidine-5-carbonitrile] | + (+ indicates binding activity greater than 0% and up to 50%)
C=CC(=O)N1CC2(CCN(c3nc(N4CCOCC4)nc(-c4cc(O)cc5ccccc45)c3C#N)C2)C1 [Compound I-80, 4-(2-acryloyl-2,6-diazaspiro[3.4]octan-6-yl)-6-(3-hydroxynaphthalen-1-yl)-2-morpholinopyrimidine-5-carbonitrile] | +++ (+++ indicates binding activity greater than 85%)
C=CC(=O)N1CC2(CCN(c3nc(N4CCC[C@@H](CO)C4)nc(-c4c(C)ccc5[nH]ncc45)c3C#N)C2)C1 [Compound I-212, 4-(2-acryloyl-2,6-diazaspiro[3.4]octan-6-yl)-2-((R)-3-(hydroxymethyl)piper-idin-1-yl)-6-(5-methyl-1H-indazol-4-yl)pyrimidine-5-carbontrile] | ++ (++ indicates binding activity from 50 to 85%)
C=CC(=O)N1CC2(CCN(c3nc(OCc4cccc(OC)c4)nc(-c4c(C)ccc5cnn(C)c45)c3C#N)C2)C1 [Compound I-159, 4-(2-acryloyl-2,6-diazaspiro[3.4]octan-6-yl)-6-(1,6-dimethyl-1H-indazol-7-yl)-2-((3-methoxybenzyl)oxy) pyrimidine-5-carbonitrile] | ++ (++ indicates binding activity from 50 to 85%)
C=CC(=O)N1CC2(CCN(c3nc(N4CCOCC4)nc(-c4c(C)ccc5[nH]ncc45)c3C#N)C2)C1 [Compound I-3, 4-(2-acryloyl-2,6-diazaspiro[3.4]octan-6-yl)-6-(5-methyl-1H-indazol-4-yl)-2-morpholinopyrimidine-5-carbonitrile] | +++ (+++ indicates binding activity greater than 85%)
C=CC(=O)N1CC2(CCN(c3nc(OCc4ncccn4)nc(-c4c(C)ccc5cnn(C)c45)c3C#N)C2)C1 [Compound I-168, 4-(2-acryloyl-2,6-diazaspiro[3.4]octan-6-yl)-6-(1,6-dimethyl-1H-indazol-7-yl)-2-(pyrimidin-2-ylmethoxy)pyrimidine-5-carbonitrile] | + (+ indicates binding activity greater than 0% and up to 50%)
C=CC(=O)N1CC2(CCN(c3cnc(-c4ccccc4)c(-c4c(C)ccc5cnn(C)c45)c3C#N)C2)C1 [Compound I-208, 5-(2-acryloyl-2,6-diazaspiro[3.4]octan-6-yl)-3-(1,6-dimethyl-1H-indazol-7-yl)-2-phenylisonicotinonitrile] | + (+ indicates binding activity greater than 0% and up to 50%)
C=CC(=O)N1CC2(CCN(c3nc(OC[C@@H]4CCCN4C)cc(-c4c(C)ccc5[nH]ncc45)n3)C2)C1 [Compound I-148, (S)-1-(6-(4-(5-methyl-1H-indazol-4-yl)-6-((1-methylpyrrolidin-2-yl)methoxy)pyrimidin-2-yl)-2,6-diazaspiro[3.4]octan-2-yl)prop-2-en-1-one] | + (+ indicates binding activity greater than 0% and up to 50%)
C=CC(=O)N1CC2(CCN(c3nc(N4CCOCC4)nc(-c4c(F)ccc5cnn(C)c45)c3C#N)C2)C1 [Compound I-119, 4-(2-acryloyl-2,6-diazaspiro[3.4]octan-6-yl)-6-(6-fluoro-1-methyl-1H-indazol-7-yl)-2-morpholinopyrimidine-5-carbontrile] | ++ (++ indicates binding activity from 50 to 85%)
C=CC(=O)N1CC2(CCN(c3nc(OCc4ccccn4)nc(-c4cc(O)cc5ccccc45)c3C#N)C2)C1 [Compound I-114, 4-(2-acryloyl-2,6-diazaspiro[3.4]octan-6-yl)-6-(3-hydroxynaphthalen-1-yl)-2-(pyridin-2-ylmethoxy)pyrimidine-5-carbonitrile] | +++ (+++ indicates binding activity greater than 85%)
C=CC(=O)N1CC2(CCN(c3ncnc(-c4c(C)ccc5[nH]ncc45)c3CC#N)C2)C1 [Compound I-241, 2-(4-(2-acryloyl-2,6-diazaspiro[3.4]octan-6-yl)-6-(5-methyl-1H-indazol-4-yl)pyrimidin-5-yl)acetonitrile] | + (+ indicates binding activity greater than 0% and up to 50%)
C=CC(=O)N1CC2(CCN(c3nc(OCc4cnc(C)nc4)nc(-c4c(C)ccc5[nH]ncc45)c3C#N)C2)C1 [Compound I-171, 4-(2-acryloyl-2,6-diazaspiro[3.4]octan-6-yl)-6-(5-methyl-1H-indazol-4-yl)-2-((2-methylpyrimidin-5-yl)methoxy)pyrimidine-5-carbonitrile] | +++ (+++ indicates binding activity greater than 85%)
C=CC(=O)N1CC2(CCN(c3nc(-c4c(C)ccc5[nH]ncc45)ncc3C#N)C2)C1 [Compound I-141, 4-(2-acryloyl-2,6-diazaspiro[3.4]octan-6-yl)-2-(5-methyl-1H-indazol-4-yl)pyrimidine-5-carbonitrile] | + (+ indicates binding activity greater than 0% and up to 50%)
C=CC(=O)N1CC2(CCN(c3nc(OCc4ccnnc4)nc(-c4c(C)ccc5cnn(C)c45)c3C#N)C2)C1 [Compound I-164, 4-(2-acryloyl-2,6-diazaspiro[3.4]octan-6-yl)-6-(1,6-dimethyl-1H-indazol-7-yl)-2-(pyridazin-4-ylmethoxy)pyrimidine-5-carbonitrile] | ++ (++ indicates binding activity from 50 to 85%)
C=CC(=O)N1CC2(CCN(c3nc(OCc4ccc(N5CCOCC5)cn4)nc(-c4c(C)ccc5[nH]ncc45)c3C#N)C2)C1 [Compound I-153, 4-(2-acryloyl-2,6-diazaspiro[3.4]octan-6-yl)-6-(5-methyl-1H-indazol-4-yl)-2-((5-morpholinopyridin-2-yl)methoxy)pyrimidine-5-carbonitrile] | ++ (++ indicates binding activity from 50 to 85%)
C=CC(=O)N1CC2(CCN(c3nc(N4CCOCC4)nc(-c4c(C)ccc5[nH]nc(C6CC6)c45)c3C#N)C2)C1 [Compound I-206, 4-(2-acryloyl-2,6-diazaspiro[3.4]octan-6-yl)-6-(3-cyclopropyl-5-methyl-1H-indazol-4-yl)-2-morpholinopyrimidine-5-carbonitrile] | + (+ indicates binding activity greater than 0% and up to 50%)
C=C(C)C(=O)N1CC2(CCN(c3nc(N4CCOCC4)nc(-c4c(C)ccc5[nH]ncc45)c3C#N)C2)C1 [Compound I-192, 4-(2-methacryloyl-2,6-diazaspiro[3.4]octan-6-yl)-6-(5-methyl-1H-indazol-4-yl)-2-morpholinopyrimidine-5-carbonitrile] | + (+ indicates binding activity greater than 0% and up to 50%)
